# Assays:
# [1] = tested on: PC-3 tumor-bearing mouse model; experiment: In vivo tumor inhibitory effect; design: species or system mice; settings: day 14 after tail vein injection, controls PBS, CDDP, PA-Mn-BSA
# Procedure: A PC-3 tumor-bearing mouse model was constructed. […] Tumor size was measured every other day for 14 consecutive days after injection to observe the tumor growth inhibitory effect in different groups. Tumors were dissected and collected from the mice on day 14 for size observation.
# [2] = Safety evaluation, blood biochemical analysis; format: in vivo, Kunming mice; settings: 24 hours after tail vein injection, versus PBS group
# Procedure: Normal Kunming mice were selected, and PBS, CDDP, PA-Mn-BSA and PA-Mn/Pt-BSA were separately injected via the tail vein of the mice. Blood biochemical analysis was performed 24 hours later.
smiles,measurement,setting,value
"[NH2][Pt]([NH2])([Cl])[Cl] [CDDP, cisplatin]",tumor volume of dissected tumors,[1],smaller tumor volume than the PBS group
same,level of alanine transaminase (ALT),[2],significantly higher
same,level of aspartate transaminase (AST),[2],significantly higher
same,level of blood urea nitrogen (BUN),[2],significantly higher
same,level of creatinine (CRE),[2],significantly higher
